Values of other authors as cited in paper PMC9499927, “Peptidomimetics designed to bind to RAS effector domain are promising cancer therapeutic compounds” (Scientific Reports, 2022).

Tests used:
[1] = test system: KRAS-mutant colon and pancreatic cancer mouse models
Excerpt: (§1) The unclear results obtained using these experimental approaches has led the scientific community to refocus on the search for direct RAS inhibitors. With this objective, two strategies are currently being followed: the first involves searching for molecules that block the interaction with non-effector RAS proteins that bind to the HVR and/or the allosteric lobe and which modulate RAS activity; and the second is looking for drugs that inhibit the binding of RAS with its effectors[20],[21]. In this context, Rigosertib, a compound that binds to the Ras-binding domain of multiple RAS effector ...

[2] = test system: Ras-binding domain of multiple RAS effectors
Excerpt: as §1

[3] = test system: patients with previously untreated metastatic pancreatic cancer; details: randomized phase 2/3 trial
Excerpt: as §1

For `COc1cc(OC)c(/C=C/S(=O)(=O)Cc2ccc(OC)c(NCC(=O)O)c2)c(OC)c1` [Rigosertib], the Tumour growth inhibition [1] is listed as “proven to inhibit tumour growth”, the Binding [2] is listed as “binds to the Ras-binding domain of multiple RAS effectors” and the “Clinical benefit of addition to gemcitabine” value [3] is listed as “no benefit”.
